Activity calls are given as the source filed them.
What was measured:
Type in all cases: functional, cell-based
OCI-AML2 = assay: Cytotoxicity against human OCI-AML2 cells after 72 hrs by MTS assay
DU-145 = assay: Cytotoxicity against human DU145 cells after 72 hrs by MTS assay
MDA-MB-468 = assay: Cytotoxicity against human MDA-MB-468 cells after 72 hrs by MTS assay

Measured: Activity

NS(=O)(=O)OCCn1cnc2c(N3CCOCC3)nc(NCc3ccc(C4CCCCC4)cc3)nc21
inactive: OCI-AML2 | DU-145 | MDA-MB-468

CC(=O)OCOC(=O)Cn1cnc2c(NC3CCCC3)nc(NCc3ccc(C4CCCCC4)cc3)nc21
inactive: OCI-AML2 | DU-145 | MDA-MB-468

CC(C)(C)C(=O)OCOC(=O)Cn1cnc2c(N3CCOCC3)nc(NC(=O)C3CCCCC3)nc21
inactive: OCI-AML2 | DU-145 | MDA-MB-468

CC(C)(C)C(=O)OCOC(=O)Cn1cnc2c(NC3CCCC3)nc(NCc3ccc(C4CCCCC4)cc3)nc21
inactive: OCI-AML2 | DU-145 | MDA-MB-468

CC(=O)OCOC(=O)Cn1cnc2c(N3CCOCC3)nc(NC(=O)C3CCCCC3)nc21
inactive: OCI-AML2 | DU-145 | MDA-MB-468

CC(C)CNc1nc(NCc2ccc(C3CCCCC3)cc2)nc2c1ncn2CCc1nnn[nH]1
inactive: OCI-AML2 | DU-145 | MDA-MB-468

CC(C)CCNc1nc(NCc2ccc(C3CCCCC3)cc2)nc2c1ncn2CCc1nnn[nH]1
inactive: OCI-AML2 | DU-145 | MDA-MB-468

CC(=O)OCOC(=O)Cn1cnc2c(NCC(C)C)nc(NCc3ccc(C4CCCCC4)cc3)nc21
inactive: OCI-AML2 | DU-145 | MDA-MB-468

c1cc(C2CCCCC2)ccc1CNc1nc(NC2CCCC2)c2ncn(CCc3nnn[nH]3)c2n1
inactive: OCI-AML2 | DU-145 | MDA-MB-468

CCOC(=O)Cn1cnc2c(NCC(C)C)nc(NCc3ccc(C4CCCCC4)cc3)nc21
inactive: OCI-AML2 | DU-145 | MDA-MB-468

O=C(Nc1nc(N2CCOCC2)c2ncn(CCc3nnn[nH]3)c2n1)C1CCCCC1
inactive: OCI-AML2 | DU-145 | MDA-MB-468

CC(=O)OCOC(=O)Cn1cnc2c(NCCC(C)C)nc(NCc3ccc(C4CCCCC4)cc3)nc21
inactive: OCI-AML2 | DU-145 | MDA-MB-468

CCOC(=O)Cn1cnc2c(N3CCOCC3)nc(NCc3ccc(C4CCCCC4)cc3)nc21
inactive: OCI-AML2 | DU-145 | MDA-MB-468

CCOC(=O)Cn1cnc2c(N3CCOCC3)nc(NC(=O)C3CCCCC3)nc21
inactive: OCI-AML2 | DU-145 | MDA-MB-468

NS(=O)(=O)OCCn1cnc2c(Oc3ccc([N+](=O)[O-])cc3)nc(NCc3ccc(C4CCCCC4)cc3)nc21
inactive: OCI-AML2 | DU-145 | MDA-MB-468

CC(C)(C)C(=O)OCOC(=O)Cn1cnc2c(NCc3ccco3)nc(NCc3ccc(C4CCCCC4)cc3)nc21
inactive: OCI-AML2 | DU-145 | MDA-MB-468

CCOC(=O)Cn1cnc2c(NC3CCCC3)nc(NCc3ccc(C4CCCCC4)cc3)nc21
inactive: OCI-AML2 | DU-145 | MDA-MB-468

CC(C)(C)C(=O)OCOC(=O)Cn1cnc2c(N3CCOCC3)nc(NCc3ccc(C4CCCCC4)cc3)nc21
inactive: OCI-AML2 | DU-145 | MDA-MB-468

— ChEMBL document CHEMBL3124828, “A 2,6,9-hetero-trisubstituted purine inhibitor exhibits potent biological effects against multiple myeloma cells” (Bioorg Med Chem, 2013)
